The results in this text go back to patent publication US8673905B2, “Imidazo pyrazines” (Hoffmann-La Roche Inc., priority 2011, dated 2014).

One test concerns MV4-11 cells. In words: Cell Glo Viability Assay (Luminescence), MV4-11. In kind it is cell-based. Particulars: Homo sapiens, 120 h; MV4-11 cells (mutated FLT3), 5 days, CellTiter-Glo; read-out: Cellular EC50 (μM) MV4-11. How it is done:
(§1) Molm13 cells, a human acute monocytic leukemia cell line, and MV4-11 cells, a human leukemia cell line known to express mutated FLT3 cells (both from ATCC) were seeded separately at 2000 cells per well in 90 μL of RPMI1640 medium supplemented with 10% FBS in 96-well black-walled plates (BD Falcon). Test compounds were diluted at ten times of assay concentrations, 10 μL was added into duplicate wells. Plates were incubated at 37° C. with 5% CO2 for 5 days. Cell viability was assayed by CellTiter-Glo® Luminescent Cell Viability Assay (Promega) following manufacturer's protocol.
(§2) The results of this assay, given as EC50 values, indicate the concentration of test compound that inhibits tumor cell proliferation by 50%.
In general terms: In ATP-based viability assays light output follows the ATP content of the culture.

For a further test, the system named is Molm13 cells. Description: Cell Glo Viability Assay (Luminescence), Molm13. In kind it is cell-based. Particulars: Homo sapiens, MOLM-13, 120 h, 5 days, CellTiter-Glo, read-out: Cellular EC50 (μM) Molm13. How it is done:
as §1, §2

Another test addresses human recombinant FLT3 (Homo sapiens (Human), UniProt P36888). Description: FLT3 Kinase Assay (Caliper mobility shift). It counts as biochemical. Particulars: 100 μM ATP, 28° C., 90 minutes; read-out: Enzyme IC50 (μM) FLT3. How it is done: After incubation, the reaction product was analyzed by electrophoretic mobility shift run on Caliper by manufacturer's protocol.

Structures are written as SMILES. Structures can show the parent of a compound that is named as a salt.

Chain of human recombinant FLT3 (P36888 27-993): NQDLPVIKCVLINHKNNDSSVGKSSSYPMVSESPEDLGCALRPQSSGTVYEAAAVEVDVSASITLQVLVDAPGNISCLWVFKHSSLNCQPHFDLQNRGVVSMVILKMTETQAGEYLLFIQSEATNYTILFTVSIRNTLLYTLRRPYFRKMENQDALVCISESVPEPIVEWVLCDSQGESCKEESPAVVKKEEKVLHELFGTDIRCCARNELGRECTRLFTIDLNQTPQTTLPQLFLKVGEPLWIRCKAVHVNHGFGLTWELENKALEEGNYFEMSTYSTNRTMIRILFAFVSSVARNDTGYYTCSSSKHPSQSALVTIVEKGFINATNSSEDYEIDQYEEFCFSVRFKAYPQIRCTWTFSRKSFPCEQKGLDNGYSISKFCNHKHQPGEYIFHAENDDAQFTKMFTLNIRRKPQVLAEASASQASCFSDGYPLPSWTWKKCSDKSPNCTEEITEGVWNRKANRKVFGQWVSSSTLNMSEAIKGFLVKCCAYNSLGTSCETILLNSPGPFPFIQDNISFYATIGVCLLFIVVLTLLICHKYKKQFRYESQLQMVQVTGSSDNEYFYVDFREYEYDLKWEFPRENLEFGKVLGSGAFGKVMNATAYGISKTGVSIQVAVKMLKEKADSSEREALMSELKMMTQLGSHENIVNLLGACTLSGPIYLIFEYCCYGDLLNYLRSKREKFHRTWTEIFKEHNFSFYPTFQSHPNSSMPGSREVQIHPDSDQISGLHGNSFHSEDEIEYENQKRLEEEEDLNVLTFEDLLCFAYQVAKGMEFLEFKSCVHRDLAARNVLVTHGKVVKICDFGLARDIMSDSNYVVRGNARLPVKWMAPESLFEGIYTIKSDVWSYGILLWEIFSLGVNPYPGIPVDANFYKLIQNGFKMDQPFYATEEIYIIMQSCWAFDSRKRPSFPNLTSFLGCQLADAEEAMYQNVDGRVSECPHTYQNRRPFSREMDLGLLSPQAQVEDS

The EC50 is the midpoint of the concentration-response curve. In general, IC50 refers to the concentration needed to halve the response being measured. As to `NCC(Nc1cccc(-c2cnc3c(NCCN4CCOCC4)nccn23)n1)c1cccc(Cl)c1` (stereo not drawn) [Example 91, 1-(3-Chloro-phenyl)-N-1-{6-[8-(2-morpholin-4-yl-ethylamino)-imidazo[1,2-a]pyrazin-3-yl]-pyridin-2-yl}-ethane-1,2-diamine hydrochloride], the EC50 with MV4-11 cells and in the test with Molm13 cells was under 0.014 µM in each case. Also, on human recombinant FLT3, the IC50 was under 0.005 µM.
